# In paper PMC9841298 (Clinical and Translational Science, 2022):
# Where two headings read alike, the source gives them in different places.
# Columns and labels:
# [1] = ref website drug bank, cited from earlier work
# [2] = PKPlus two-compartmental PK model fitted to reference product plasma data; design: species or system human
# [3] = fasting, two-compartmental model, from reference product 2.0 mg data of ref 13
structure (smiles),measurement,setting,value
O=C(O)C[C@H](O)C[C@H](O)/C=C/c1c(C2CC2)nc2ccccc2c1-c1ccc(F)cc1 [pitavastatin calcium],Log P,[1]; model input,3.75
same,pKa,[1]; model input,4.86
same,Solubility,[1]; pH 4.68,65.2 µg/mL
same,Solubility,[1]; water,3.94 µg/mL
same,distribution coefficient from the peripheral to central compartment (k21),[2]; [3],0.086 h⁻¹
same,distribution constant from the central to the peripheral compartment (k12),[2]; [3],0.252 h⁻¹
same,Vd,"[2]; human, plasma, oral, 2 mg",43.2 L
same,clearance,"[2]; human, plasma, oral, 2 mg",343 mL/min
